Data on 23 molecules can be found in patent US20250346575A1, “ISOINDOLINONE DERIVATIVE HAVING GLUTARIMIDE MOTHER NUCLEUS, AND USE THEREOF” (KOREA RESEARCH INSTITUTE OF CHEMICAL TECHNOLOGY, priority 2021, published 2025).

Molecules are shown by their SMILES.

The subject of one data set is Cancer cells (KG-1). Nature of the data set: Cytotoxicity assay, WST-1, KG-1. It counts as cell-based. Conditions: for IC50: Homo sapiens, KG-1 cells, 72 hours, WST-1; for cytotoxic activity against KG-1 and NCI-H1155 cancer cells (in words): R1 bicyclic heteroaryl compared to monocyclic aryl (comparative substance) or heteroaryl (Compounds 37 and 38). The procedure:
To evaluate the effect of the compounds of the present disclosure on cancer cells, a cytotoxicity assay was conducted as follows.
Cancer cells (KG-1) were seeded at a concentration of 10,000 cells per well into a 96-well plate. Then, the cells were treated with predetermined concentrations of compounds of the Examples and comparative substances (comparative compounds 1, 2, 3). After 72 hours, the cells were incubated with WST-1 reagent for one hour. Then, absorbance was measured at 450 nm using a spectramax spectrophotometer to assess the degree of cancer cell apoptosis. The IC50 (μM) values were calculated using the measured values with the GraphPad Prism program and the measurements are summarized in Table 1.
(In general: Tetrazolium assays rely on reduction of a dye to a coloured formazan, in cell work by metabolically active cells.)

Data set [1] relates to NCI-H1155 (lung cancer cells). Nature of the data set: CytoX cell viability assay, NCI-H1155. It counts as cell-based. Conditions: Homo sapiens, NCI-H1155, 72 hours; for viability at 0.01 µM: 10 nM; for viability at 0.5 µM: 500 nM. The procedure: The survival rate of NCI-H1155 (lung cancer cells) was measured using the CytoX cell viability assay kit (LPS solution, #CYT3000). NCI-H1155 cells were inoculated into 12-well plates. Afterwards, the cells were treated with each compound of the present disclosure and a comparative substance (CC-90009) at concentrations of 10 nM and 500 nM for 72 hours. Then, CytoX solution was added to the cells, incubated for one hour, and the absorbance of each well was read at 450 nm using a microplate reader to calculate the % viability, and the measurements are summarized in Table 2

The term IC50 denotes the concentration at which inhibition is half-maximal. A lower IC50 goes with greater potency. In turn, `O=C1CCC(N2Cc3cc(CNC(=O)c4cc5ccccc5cn4)ccc3C2=O)C(=O)N1` (stereo not drawn) [Comparative Compound 1, N-((2-(2,6-Dioxopiperidin-3-yl)-1-oxoisoindolin-5-yl)methyl)isoquinoline-3-carboxamide, reference compound] yielded an IC50 in the data set with Cancer cells (KG-1) of 10 to 50 µM.

For `O=C1CCC(N2Cc3cc(CNC(=O)c4cnc5ccccc5n4)ccc3C2=O)C(=O)N1` (stereo not drawn) [Comparative Compound 2, N-((2-(2,6-Dioxopiperidin-3-yl)-1-oxoisoindolin-5-yl)methyl)quinoxaline-2-carboxamide, reference compound], the IC50 in the data set on Cancer cells (KG-1) was 10 to 50 µM.

In turn, `O=C1CCC(N2Cc3cc(CNC(=O)c4ccc5cc(Cl)ccc5n4)ccc3C2=O)C(=O)N1` (stereo not drawn) [Comparative Compound 3, 6-Chloro-N-((2-(2,6-dioxopiperidin-3-yl)-1-oxoisoindolin-5-yl)methyl)quinoline-2-carboxamide, reference compound] gave an IC50 in the data set on Cancer cells (KG-1) of 10 to 50 µM.

Turning to `O=C1CCC(N2Cc3cc(CNC(=O)c4ccccc4)ccc3C2=O)C(=O)N1` (stereo not drawn) [Comparative substance, reference compound], in the data set with Cancer cells (KG-1), the IC50 fell in the range of 10 to 50 µM.

`O=C1CCC(N2Cc3cc(CNC(=O)c4n[nH]c5cc(Cl)ccc45)ccc3C2=O)C(=O)N1` (stereo not drawn) [Compound 1, 6-Chloro-N-((2-(2,6-dioxopiperidin-3-yl)-1-oxoisoindolin-5-yl)methyl)-1H-indazole-3-carboxamide]: in the data set with Cancer cells (KG-1), the IC50 lay in the range of 0.0001 to 0.01 µM.

Consider `O=C1CCC(N2Cc3cc(CNC(=O)c4cc(-c5ccc(Cl)cc5)n[nH]4)ccc3C2=O)C(=O)N1` (stereo not drawn) [Compound 2, 3-(4-Chlorophenyl)-N-((2-(2,6-dioxopiperidin-3-yl)-1-oxoisoindolin-5-yl)methyl)-1H-pyrazole-5-carboxamide], for which the IC50 in the data set with Cancer cells (KG-1) lay in the range of 0.0001 to 0.01 µM.

Turning to `O=C1CCC(N2Cc3cc(CNC(=O)c4nc5cc(Cl)ccc5[nH]4)ccc3C2=O)C(=O)N1` (stereo not drawn) [Compound 3, 5-Chloro-N-((2-(2,6-dioxopiperidin-3-yl)-1-oxoisoindolin-5-yl)methyl)-1H-benzo[d]imidazole-2-carboxamide], the “cytotoxic activity against KG-1 and NCI-H1155 cancer cells (in words)” value with Cancer cells (KG-1) is given as “more potent cytotoxic activity”.

In the data set with Cancer cells (KG-1), `O=C1CCC(N2Cc3cc(CNC(=O)c4n[nH]c5cc(Cl)c(Cl)cc45)ccc3C2=O)C(=O)N1` (stereo not drawn) [Compound 4, 5,6-Dichloro-N-((2-(2,6-dioxopiperidin-3-yl)-1-oxoisoindolin-5-yl)methyl)-1H-indazole-3-carboxamide] had a half-maximal inhibitory concentration (IC50) of 0.0001 to 0.01 µM.

Regarding `O=C1CCC(N2Cc3cc(CNC(=O)c4cc(-c5cccc(Cl)c5)n[nH]4)ccc3C2=O)C(=O)N1` (stereo not drawn) [Compound 5, 3-(3-Chlorophenyl)-N-((2-(2,6-dioxopiperidin-3-yl)-1-oxoisoindolin-5-yl)methyl)-1H-pyrazole-5-carboxamide], the IC50 in the data set on Cancer cells (KG-1) was 0.0001 to 0.01 µM.

Take `O=C1CCC(N2Cc3cc(CNC(=O)c4c[nH]c5cc(Cl)ccc45)ccc3C2=O)C(=O)N1` (stereo not drawn) [Compound 6, 6-chloro-N-((2-(2,6-dioxopiperidin-3-yl)-1-oxoisoindolin-5-yl)methyl)-1H-indole-3-carboxamide]: the IC50 in the data set with Cancer cells (KG-1) was in the range of 0.01 to 1 µM.

For the molecule `O=C1CCC(N2Cc3cc(CNC(=O)c4c[nH]c5ccc(Cl)cc45)ccc3C2=O)C(=O)N1` (stereo not drawn) [Compound 7, 5-Chloro-N-((2-(2,6-dioxopiperidin-3-yl)-1-oxoisoindolin-5-yl)methyl)-1H-indole-3-carboxamide], in the data set with Cancer cells (KG-1), the IC50 lay in the range of 0.01 to 1 µM; the “cytotoxic activity against KG-1 and NCI-H1155 cancer cells (in words)” value was “more potent cytotoxic activity”.

In the data set on Cancer cells (KG-1), `O=C1CCC(N2Cc3cc(CNC(=O)c4n[nH]c5ccc(Cl)cc45)ccc3C2=O)C(=O)N1` (stereo not drawn) [Compound 8, 5-Chloro-N-((2-(2,6-dioxopiperidin-3-yl)-1-oxoisoindolin-5-yl)methyl)-1H-indazole-3-carboxamide] showed an IC50 of 0.01 to 1 µM.

Consider `O=C1CCC(N2Cc3cc(CNC(=O)c4cc5ccc(Cl)cc5[nH]4)ccc3C2=O)C(=O)N1` (stereo not drawn) [Compound 9, 6-chloro-N-((2-(2,6-dioxopiperidin-3-yl)-1-oxoisoindolin-5-yl)methyl)-1H-indole-2-carboxamide], for which the IC50 with Cancer cells (KG-1) was in the range of 0.01 to 1 µM.

Molecule `O=C1CCC(N2Cc3cc(CNC(=O)c4cc(-c5ccc(Cl)cc5)on4)ccc3C2=O)C(=O)N1` (stereo not drawn) [Compound 11, 5-(4-Chlorophenyl)-N-((2-(2,6-dioxopiperidin-3-yl)-1-oxoisoindolin-5-yl)methyl)isoxazole-3-carboxamide] displayed an IC50 in the data set with Cancer cells (KG-1) of 0.0001 to 0.01 µM.

As for `O=C1CCC(N2Cc3cc(CNC(=O)c4cc(-c5cccc(Cl)c5)c[nH]4)ccc3C2=O)C(=O)N1` (stereo not drawn) [Compound 14, 4-(3-Chlorophenyl)-N-((2-(2,6-dioxopiperidin-3-yl)-1-oxoisoindolin-5-yl)methyl)-1H-pyrrole-2-carboxamide], in the data set with Cancer cells (KG-1), the 50% inhibitory concentration (IC50) was 0.0001 to 0.01 µM.

The molecule `O=C1CCC(N2Cc3cc(CNC(=O)c4cn(-c5cccc(Cl)c5)nn4)ccc3C2=O)C(=O)N1` (stereo not drawn) [Compound 15, 1-(3-chlorophenyl)-N-((2-(2,6-dioxopiperidin-3-yl)-1-oxoisoindolin-5-yl)methyl)-1H-1,2,3-triazole-4-carboxamide] displayed an IC50 with Cancer cells (KG-1) of 0.0001 to 0.01 µM.

For the molecule `O=C1CCC(N2Cc3cc(CNC(=O)c4nc5cc(Cl)c(Cl)cc5[nH]4)ccc3C2=O)C(=O)N1` (stereo not drawn) [Compound 16, 5,6-dichloro-N-((2-(2,6-dioxopiperidin-3-yl)-1-oxoisoindolin-5-yl)methyl)-1H-benzo[d]imidazole-2-carboxamide], the IC50 in the data set with Cancer cells (KG-1) was in the range of 0.01 to 1 µM.

The viability is a read-out of living cells in per cent, often relative to untreated cells. A low value points to more harm to the cells. In data set [1], `Cc1c(C(=O)NCc2ccc3c(c2)CN(C2CCC(=O)NC2=O)C3=O)sc2cccc(F)c12` (stereo not drawn) [Compound 79, N-((2-(2,6-Dioxopiperidin-3-yl)-1-oxoisoindolin-5-yl)methyl)-4-fluoro-3-methylbenzo[b]thiophene-2-carboxamide] came in with a viability at 0.01 µM of 16.2% and a viability at 0.5 µM of 15.2%.

In data set [1], `COc1cccc2cc(C(=O)NCc3ccc4c(c3)CN(C3CCC(=O)NC3=O)C4=O)oc12` (stereo not drawn) [Compound 82, N-((2-(2,6-Dioxopiperidin-3-yl)-1-oxoisoindolin-5-yl)methyl)-7-methoxybenzofuran-2-carboxamide] displayed a viability at 0.01 µM of 39% and a viability at 0.5 µM of 17.6%.

In data set [1], `COc1ccc2cc(C(=O)NCc3ccc4c(c3)CN(C3CCC(=O)NC3=O)C4=O)oc2c1` (stereo not drawn) [Compound 83, N-((2-(2,6-Dioxopiperidin-3-yl)-1-oxoisoindolin-5-yl)methyl)-6-methoxybenzofuran-2-carboxamide] had a viability at 0.01 µM of 26.1% and a viability at 0.5 µM of 15.9%.

On to `Cc1ccc2c(C)c(C(=O)NCc3ccc4c(c3)CN(C3CCC(=O)NC3=O)C4=O)oc2c1` (stereo not drawn) [Compound 84, N-((2-(2,6-Dioxopiperidin-3-yl)-1-oxoisoindolin-5-yl)methyl)-3,6-dimethylbenzofuran-2-carboxamide], for which, in data set [1], the viability at 0.01 µM is 28.9% and the viability at 0.5 µM stood at 18.2%.

In data set [1], `Cc1c(C(=O)NCc2ccc3c(c2)CN(C2CCC(=O)NC2=O)C3=O)oc2ccc(Br)cc12` (stereo not drawn) [Compound 85, 5-bromo-N-((2-(2,6-dioxopiperidin-3-yl)-1-oxoisoindolin-5-yl)methyl)-3-methylbenzofuran-2-carboxamide] had a viability at 0.01 µM of 36.6% and a viability at 0.5 µM of 18.6%.

With `O=C1CCC(N2Cc3cc(CNC(=O)c4cc5c(ccc6ccccc65)o4)ccc3C2=O)C(=O)N1` (stereo not drawn) [Compound 86, N-((2-(2,6-Dioxopiperidin-3-yl)-1-oxoisoindolin-5-yl)methyl)naphtho[2,1-b]furan-2-carboxamide], in data set [1], the viability at 0.01 µM is 14.7% and the viability at 0.5 µM turned out to be 14.7%.
